# Where “and” joins values, the source holds several entries; their conditions need not be identical. Equal entries are not always repeated. Where two headings read alike, the source gives them in different places.
# Tests used:
# CAXIII = CAXIII (Homo sapiens, UniProt Q8N1Q1); test: biochemical; conditions: FTSA;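 also: recombinant human CAXIII melting temperature tracked by ANS fluorescence in thermal shift assay, Tm fitted against ligand concentration, intrinsic value corrects Kd for deprotonated sulfonamide and Zn-bound water fractions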
# Chain of CAXIII (Q8N1Q1 whole entry): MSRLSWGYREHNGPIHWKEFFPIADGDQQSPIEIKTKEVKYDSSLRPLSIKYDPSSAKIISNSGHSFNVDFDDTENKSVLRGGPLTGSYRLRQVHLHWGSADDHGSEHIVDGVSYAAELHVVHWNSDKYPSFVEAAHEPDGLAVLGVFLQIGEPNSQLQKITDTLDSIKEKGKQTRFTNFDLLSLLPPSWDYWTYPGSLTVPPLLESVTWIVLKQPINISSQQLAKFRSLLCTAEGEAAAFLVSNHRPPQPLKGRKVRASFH
# Procedure: (§1) Human CA isozymes were expressed in E. coli (CAI, II, III, IV, VA, VB, VII, XII, XIII, XIV) or mammalian cells (CAVI and CAIX), chromatographically purified following the published protocols [47], and stored at −80 °C. The protein concentration was determined by UV absorption at 280 nm using Beer–Lambert law.
# (§2) The QIAGEN Rotor-Gene Q was used to carry out the experiments, with a blue channel used for excitation (365 nm) and detection (460 nm). FTSA in this case relies on an extrinsic probe, 8-anilino-1-naphthalenesulfonate (ANS), to detect the fluorescence increase during protein denaturation, from which protein melting temperature (Tm) can be determined. […] The observed affinity of ligands for CAs was determined by plotting the Tm as a function of ligand concentration and then fitting a curve as described previously [48]. […] Samples were heated from 25 °C to 99 °C at the speed of 1 °C/min.
# (§3) The intrinsic thermodynamic parameters were calculated as described in [40]. The intrinsic reaction of inhibitor binding to CA is shown in Equation (1).
# (§4) When calculating Kd_int values, these protein and ligand fractions from Equation (1) have to be accounted for (Equations (2) and (3)). The intrinsic dissociation constant is calculated by multiplying Kd_obs value by the corresponding fractions of protein and ligand (Equation (4)). (2) fRSO2NH^−=10^pH−pKa_RSO2NH2/1+10^pH−pKa_RSO2NH2 (3) fCAZnH2O=1−10^pH−pKa_CAZnH2O/1+10^pH−pKa_CAZnH2O (4) Kd_int=Kd_obs×fRSO2NH^−×fCAZnH2O (5) ΔGint0=RTlnKd_int
# (§5) The intrinsic standard Gibbs energy changes upon binding were calculated using Equation (5). Here, R—universal ideal gas constant (8.3144 J/mol·K), T—absolute temperature (310.15 K).
# CAXII = target: T1, CAXII (Homo sapiens, UniProt O43570); test: biochemical; format: binding; conditions: FTSA
# T1 construct: made in house; host or cells: E. coli
# T1 sequence (O43570 25-354): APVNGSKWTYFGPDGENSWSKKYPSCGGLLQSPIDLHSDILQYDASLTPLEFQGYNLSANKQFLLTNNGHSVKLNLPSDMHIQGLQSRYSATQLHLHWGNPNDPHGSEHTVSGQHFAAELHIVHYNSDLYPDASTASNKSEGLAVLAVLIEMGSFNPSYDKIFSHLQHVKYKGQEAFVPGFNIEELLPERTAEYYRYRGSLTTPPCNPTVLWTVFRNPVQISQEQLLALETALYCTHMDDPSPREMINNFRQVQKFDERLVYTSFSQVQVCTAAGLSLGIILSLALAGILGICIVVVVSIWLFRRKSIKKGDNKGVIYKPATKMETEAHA
# Procedure: as §1, §2, §3, §4, §5
# CAII = target: T2, CAII (Homo sapiens, UniProt P00918); test: biochemical; format: binding; conditions: FTSA;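 also: recombinant human CAII, thermal shift with ANS dye fluorescence, Kd_obs from fitting melting temperature versus ligand concentration, intrinsic values corrected for deprotonated sulfonamide and Zn-bound water fractions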
# T2 construct: made in house; host or cells: E. coli
# CAI = target: T3, CAI (Homo sapiens, UniProt P00915); test: biochemical; format: binding; conditions: FTSA
# T3 construct: made in house; host or cells: E. coli
# T3 sequence (P00915 whole entry): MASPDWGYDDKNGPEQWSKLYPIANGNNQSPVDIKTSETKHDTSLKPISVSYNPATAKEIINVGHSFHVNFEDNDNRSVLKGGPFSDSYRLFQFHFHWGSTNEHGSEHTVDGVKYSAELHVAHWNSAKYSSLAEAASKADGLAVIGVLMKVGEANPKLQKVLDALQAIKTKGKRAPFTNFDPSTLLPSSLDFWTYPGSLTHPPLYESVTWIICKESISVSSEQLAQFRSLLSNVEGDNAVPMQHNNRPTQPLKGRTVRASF
# Procedure: as §1, §2, §3, §4, §5
# CAIX = target: T4, CAIX (Homo sapiens, UniProt Q16790); test: biochemical; format: binding; conditions: FTSA
# T4 construct: made in house
# Procedure: as §1, §2, §3, §4, §5
# [1] = Observed Dissociation Constant (Kd_obs), pH 7.0, 37 °C
# [2] = pH 7.0, 37 °C, read-out: Observed Dissociation Constant (Kd_obs), CAXII
# [3] = pH 7.0, 37 °C, read-out: Observed Dissociation Constant (Kd_obs), CAII
# [4] = pH 7.0, 37 °C, read-out: Observed Dissociation Constant (Kd_obs), CAI
# [5] = pH 7.0, 37 °C, read-out: Observed Dissociation Constant (Kd_obs), CAIX
# 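For Observed Dissociation Constant (Kd obs), CAXII in this document: recombinant CAXII made in E. coli, ANS-fluorescence thermal shift with affinity fitted from Tm versus ligand concentration, intrinsic energy from Kd_obs corrected for deprotonated sulfonamide and Zn-water fractions.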
SMILES,Kd (CAXIII; Kd_obs),Kd (CAXIII; [1]),Kd (CAXII; [2]),"Kd (CAXII; read-out: Kd_obs, CAXII)",Kd (CAII; [3]),"Kd (CAII; read-out: Kd_obs, CAII)",melting point,Kd (CAI; [4]),"Kd (CAI; read-out: Kd_obs, CAI)",Kd (CAIX; [5]),"Kd (CAIX; read-out: Kd_obs, CAIX)"
"NNC(=O)CC(CNc1ccc(S(N)(=O)=O)cc1)C(=O)NN (stereo not shown) [Compound 2a, 4-((2-(Hydrazinecarbonyl)-4-hydrazineyl-4-oxobutyl)amino)benzenesulfonamide]",0.83 to 130 µM,130 µM,71 µM,0.83 to 130 µM,14 µM,0.83 to 130 µM,164 to 165 °C,78 µM,0.83 to 130 µM,4 µM,0.83 to 130 µM
"NNC(=O)CC(CNc1ccc(S(N)(=O)=O)cc1Cl)C(=O)NN (stereo not shown) [Compound 2b, 3-Chloro-4-((2-(hydrazinecarbonyl)-4-hydrazineyl-4-oxobutyl)amino)benzenesulfonamide]",0.83 to 130 µM,6.7 µM,14 µM,0.83 to 130 µM,1.3 µM,0.83 to 130 µM,,6.7 µM,0.83 to 130 µM,0.83 µM,0.83 to 130 µM and 0.83 µM
"CC(C)=NNC(=O)CC(CNc1ccc(S(N)(=O)=O)cc1)C(=O)NN=C(C)C (stereo not shown) [Compound 3a, 4-((4-Oxo-2-(2-(propan-2-ylidene)hydrazine-1-carbonyl)-4-(2-(propan-2-ylidene)hydrazineyl)butyl)amino)benzenesulfonamide]",,100 µM,110 µM,,13 µM,,,170 µM,,6.7 µM,
"CC(C)=NNC(=O)CC(CNc1ccc(S(N)(=O)=O)cc1Cl)C(=O)NN=C(C)C (stereo not shown) [Compound 3b, 3-Chloro-4-((4-oxo-2-(2-(propan-2-ylidene)hydrazine-1-carbonyl)-4-(2-(propan-2-ylidene)hydrazineyl)butyl)amino)benzenesulfonamide]",,6.7 µM,14 µM,,1.8 µM,,,10 µM,,0.67 µM,
"CCC(C)=NN1C(=O)CC(CNc2ccc(S(N)(=O)=O)cc2)C1=O (stereo not shown) [Compound 4a, 4-(((1-(Butan-2-ylideneamino)-2,5-dioxopyrrolidin-3-yl)methyl)amino)benzenesulfonamide]",,20 µM,18 µM,,40 µM,,117 to 118 °C,18 µM,,2 µM,
"CCC(C)=NN1C(=O)CC(CNc2ccc(S(N)(=O)=O)cc2Cl)C1=O (stereo not shown) [Compound 4b, 4-(((1-(Butan-2-ylideneamino)-2,5-dioxopyrrolidin-3-yl)methyl)amino)-3-chlorobenzenesulfonamide]",,1.3 µM,4 µM,,0.33 µM,,92 to 93 °C,2.9 µM,,0.25 µM,
"CC(=NNC(=O)CC(CNc1ccc(S(N)(=O)=O)cc1)C(=O)NN=C(C)c1ccccc1)c1ccccc1 (stereo not shown) [Compound 5a, 4-((4-Oxo-2-(2-(1-phenylethylidene)hydrazine-1-carbonyl)-4-(2-(1-phenylethylidene)hydrazineyl)butyl)amino)benzenesulfonamide]",,5 µM,0.5 µM,,1.3 µM,,162 to 163 °C,8.3 µM,,0.59 µM,
"CC(=NNC(=O)CC(CNc1ccc(S(N)(=O)=O)cc1Cl)C(=O)NN=C(C)c1ccccc1)c1ccccc1 (stereo not shown) [Compound 5b, 3-Chloro-4-((4-oxo-2-(2-(1-phenylethylidene)hydrazine-1-carbonyl)-4-(2-(1-phenylethylidene)hydrazineyl)butyl)amino)benzenesulfonamide]",,0.4 µM,6.7 µM,,0.25 µM,,158 to 159 °C,4 µM,,0.18 µM,
"NS(=O)(=O)c1ccc(NCC(CC(=O)NN=Cc2ccccc2)C(=O)NN=Cc2ccccc2)cc1 (stereo not shown) [Compound 6a, 4-((2-(2-(Benzylidene)hydrazine-1-carbonyl)-4-(2-(benzylidene)hydrazineyl)-4-oxobutyl)amino)benzenesulfonamide]",,7.7 µM,25 µM,,1.8 µM,,208 to 209 °C,14 µM,,0.56 µM,
"NS(=O)(=O)c1ccc(NCC(CC(=O)NN=Cc2ccccc2O)C(=O)NN=Cc2ccccc2O)cc1 (stereo not shown) [Compound 7a, 4-((2-(2-(2-Hydroxybenzylidene)hydrazine-1-carbonyl)-4-(2-(2-hydroxybenzylidene)hydrazineyl)-4-oxobutyl)amino)benzenesulfonamide]",,10 µM,20 µM,,2 µM,,177 to 178 °C,6.7 µM,,0.5 µM,
"NS(=O)(=O)c1ccc(NCC(CC(=O)NN=Cc2ccccc2O)C(=O)NN=Cc2ccccc2O)c(Cl)c1 (stereo not shown) [Compound 7b, 3-Chloro-4-((2-(2-(2-hydroxybenzylidene)hydrazine-1-carbonyl)-4-(2-(2-hydroxybenzylidene)hydrazineyl)-4-oxobutyl)amino)benzenesulfonamide]",,0.17 µM,5 µM,,0.17 µM,,204 to 205 °C,1 µM,,0.067 µM,
"NS(=O)(=O)c1ccc(NCC(CC(=O)NN=Cc2cccc(O)c2)C(=O)NN=Cc2cccc(O)c2)cc1 (stereo not shown) [Compound 8a, 4-((2-(2-(3-Hydroxybenzylidene)hydrazine-1-carbonyl)-4-(2-(3-hydroxybenzylidene)hydrazineyl)-4-oxobutyl)amino)benzenesulfonamide]",,5 µM,33 µM,,2 µM,,192 to 193 °C,10 µM,,0.67 µM,
"NS(=O)(=O)c1ccc(NCC(CC(=O)NN=Cc2cccc(O)c2)C(=O)NN=Cc2cccc(O)c2)c(Cl)c1 (stereo not shown) [Compound 8b, 3-Chloro-4-((2-(2-(3-hydroxybenzylidene)hydrazine-1-carbonyl)-4-(2-(3-hydroxybenzylidene)hydrazineyl)-4-oxobutyl)amino)benzenesulfonamide]",,0.2 µM,20 µM,,0.25 µM,,119 to 120 °C,1 µM,,0.1 µM,
"NS(=O)(=O)c1ccc(NCC(CC(=O)NN=Cc2ccc(O)cc2)C(=O)NN=Cc2ccc(O)cc2)cc1 (stereo not shown) [Compound 9a, 4-((2-(2-(4-Hydroxybenzylidene)hydrazine-1-carbonyl)-4-(2-(4-hydroxybenzylidene)hydrazineyl)-4-oxobutyl)amino)benzenesulfonamide]",,4.3 µM,25 µM,,1.3 µM,,186 to 187 °C,5.9 µM,,0.5 µM,
"NS(=O)(=O)c1ccc(NCC(CC(=O)NN=Cc2ccccc2Cl)C(=O)NN=Cc2ccccc2Cl)cc1 (stereo not shown) [Compound 10a, 4-((2-(2-(2-Chlorobenzylidene)hydrazine-1-carbonyl)-4-(2-(2-chlorobenzylidene)hydrazineyl)-4-oxobutyl)amino)benzenesulfonamide]",,1.7 µM,50 µM,,2.5 µM,,174 to 175 °C,17 µM,,0.5 µM,
"NS(=O)(=O)c1ccc(NCC(CC(=O)NN=Cc2ccccc2Cl)C(=O)NN=Cc2ccccc2Cl)c(Cl)c1 (stereo not shown) [Compound 10b, 3-Chloro-4-((2-(2-(2-chlorobenzylidene)hydrazine-1-carbonyl)-4-(2-(2-chlorobenzylidene)hydrazineyl)-4-oxobutyl)amino)benzenesulfonamide]",,0.13 µM,50 µM,,0.33 µM,,203 to 204 °C,1.7 µM,,0.13 µM,
